Source: paper PMC6348446 (Journal of Medicinal Chemistry, 2018)
Converted amounts (≈) assume the structure as drawn.

How the values were obtained:
[1] = target: T1, BRD7 (Homo sapiens, UniProt Q9NPI1); test: Western blot of BRD7 levels in RI-1 cells after compound treatment; assay type: cell-based; conditions: for BRD7 degradation: 4 h
T1 construct: Western blot analysis of BRD9 and BRD7 levels after treatment of HeLa cells; endogenous in cells; host or cells: HeLa
T1 sequence (Q9NPI1 1-651): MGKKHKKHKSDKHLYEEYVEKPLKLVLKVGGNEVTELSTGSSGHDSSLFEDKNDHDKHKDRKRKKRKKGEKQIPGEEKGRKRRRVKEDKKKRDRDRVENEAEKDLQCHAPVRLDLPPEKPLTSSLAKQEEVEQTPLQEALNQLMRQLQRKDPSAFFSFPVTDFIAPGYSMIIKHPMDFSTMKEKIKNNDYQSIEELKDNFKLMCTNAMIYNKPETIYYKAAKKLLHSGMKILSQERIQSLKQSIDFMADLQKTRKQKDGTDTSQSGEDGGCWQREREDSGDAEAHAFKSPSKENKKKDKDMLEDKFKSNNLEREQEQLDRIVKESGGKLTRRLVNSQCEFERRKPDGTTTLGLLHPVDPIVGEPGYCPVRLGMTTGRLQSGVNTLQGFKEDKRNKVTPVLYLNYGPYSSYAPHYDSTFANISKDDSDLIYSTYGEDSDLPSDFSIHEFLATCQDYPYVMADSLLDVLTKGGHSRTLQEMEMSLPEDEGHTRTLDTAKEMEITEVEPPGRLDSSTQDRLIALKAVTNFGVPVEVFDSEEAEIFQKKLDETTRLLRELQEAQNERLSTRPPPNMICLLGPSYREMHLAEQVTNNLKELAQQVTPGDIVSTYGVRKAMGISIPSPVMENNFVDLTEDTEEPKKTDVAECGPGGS
Experimental: HeLa and Hek293 cells were seeded at either 0.3 × 10^6 or 0.5 × 10^6 cells per well in 6-well plate in 2 mL of medium. At 80% confluency, cells were treated with compounds at the desired concentration, with final DMSO concentration of 0.1% v/v. Cells were incubated at 37 °C and 5% of CO2 for the desired time before harvesting. For protein extraction from adherent cells, cells were washed twice with DPBS (Gibco) and lysed with RIPA buffer (Sigma-Aldrich), supplemented with cOmplete Mini EDTA-free protease inhibitor cocktail (Roche). Insoluble material was removed by centrifugation at 14 000 rpm for 15 min at 4 °C. Supernatant was collected and protein concentration was quantified by Bradford assay (Thermo Scientific no. 23200, mean of two replicates). For RI-1 cells, (1–1.5) × 10^6 cells/mL were seeded in 6-well plate in 2 mL of medium. The day after, cells were treated with compounds at the desired concentration, with final DMSO concentration of 0.1% v/v. Before harvesting, cells were incubated at 37 °C and 5% CO2 for the desired time. Cells were washed twice with DPBS (Gibco) and lysed with RIPA buffer (Sigma-Aldrich), supplemented with cOmplete Mini EDTA-free protease inhibitor cocktail (Roche). Lysates were sonicated (10 s) and centrifuged at 14 000 rpm for 20 min at 4 °C. Supernatant was collected, and protein concentration was quantified by Bradford assay (mean of two replicates). For EOL-1 and A-204 cell line, 20 000 cells were seeded in 300 μL per well in a 24-well plate and incubated at 37 °C overnight. Compounds were added from DMSO stock solution using a digital dispenser D300 (Tecan), normalizing for added DMSO, and cells were incubated at 37 °C for 18 h. Medium was removed, and cells were washed with PBS and lysed in 80 μL of lysis buffer (1% Triton, 350 mM KCl, 10 mM Tris, pH 7,4, phosphatase-protease inhibitor cocktail (Thermo Scientific no. 1861281), 10 mM DTT, Benzonase 0.5 μL/ml (Novagen no. 70746 10KU, 25 U/μL)) for 30 min on ice before insoluble debris was pelleted by centrifugation.
Cells were seeded in 6-well plates with 5 × 10^5 cells per well in 2 mL of complete medium to aim for 80% confluence on the day of treatment. At time zero, ML4924 was added at final concentration of 3 μM with 0.1% v/v of DMSO. DMSO was added to the remaining wells in order to match concentration of vehicle in all wells. […]
Proteins were resolved by SDS–PAGE on NuPage 4–12% Bis-Tris Midi Gel (Invitrogen) and transferred to Amersham Protran 0.45 NC nitrocellulose membrane (GE Healthcare) using wet transfer. […] ImageJ software was used for band quantification, and the last was reported as relative amount as ratio of each protein band relative to the lane’s loading control. […]

[2] = Aqueous kinetic solubility by laser nephelometry; assay type: physicochemical; conditions: for solubility kinetic: MilliQ water with 2.5% DMSO
Experimental: The aqueous solubility of the test compounds was measured using laser nephelometry.
Compounds were subject to serial dilution from 10 mM to 0.5 mM in DMSO. An aliquot was then mixed with MilliQ water to obtain an aqueous dilution plate with a final concentration range of 250 – 12 µM, with a final DMSO concentration of 2.5%. Triplicate aliquots were transferred to a flat-bottomed polystyrene plate which was immediately read on the NEPHELOstar (BMG Lab Technologies). The amount of laser scatter caused by insoluble particulates (relative nephelometry units, RNU) was plotted against compound concentration using a segmental regression fit, with the point of inflection being quoted as the compounds

Row | Structure (SMILES) | decrease of BRD7 level ([1]; 100 nM, 30 min) | BRD7 degradation ([1]; 100 nM) | concentration window of maximal protein degradation of BRD7 ([1]; 2 and 8 h) [µM] | Aqueous Solubility (Kinetic) ([2]; 2.5% DMSO, listed as VZ185) [µM] | solubility kinetic [2] [µM]
1 | COc1cc(-c2cn(C)c(=O)c3cnccc23)cc(OC)c1CN1CCN(CCCCCOc2cc(-c3scnc3C)ccc2CNC(=O)[C@@H]2C[C@@H](O)CN2C(=O)[C@@H](NC(=O)C2(F)CC2)C(C)(C)C)CC1 [Compound 51, (2S,4R)-N-(2-((5-(4-(2,6-Dimethoxy-4-(2-methyl-1-oxo-1,2-dihydro-2,7-naphthyridin-4-yl)benzyl)piperazin-1-yl)pentyl)oxy)-4-(4-methylthiazol-5-yl)benzyl)-1-((S)-2-(1-fluorocyclopropane-1-carboxamido)-3,3-dimethylbutanoyl)-4-hydroxypyrrolidine-2-carboxamide] | more than 50% | more than 90% | 0.1 to 1 | ~100 | 85 (≈ 84.6 µg/mL)
2 | COc1cc(-c2cn(C)c(=O)c3cnccc23)cc(OC)c1CN1CCN(CCCCCOc2cc(-c3scnc3C)ccc2CNC(=O)[C@@H]2C[C@H](O)CN2C(=O)[C@@H](NC(=O)C2(F)CC2)C(C)(C)C)CC1 [cisVZ185] | – | no degradation | – | – | 79 (≈ 78.6 µg/mL)
